# Data from PubChem BioAssay AID248 (DTP/NCI, 2004).
# Where “and” joins values, the source holds several entries; their conditions need not be identical. Equal entries are not always repeated. Toxic doses and inconclusive results are not listed.
# Tested on: L1210 leukemia ip in BDF1 mice, survival T/C
# Assay: NCI In Vivo Anticancer Drug Screen. Data for tumor model L1210 Leukemia (intraperitoneal) in B6D2F1 (BDF1) mice
# Details: endpoint: mean survival time, higher = longer survival
# Procedure, shortened: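 Ratio derived from survival: compound-dosed mice over vehicle-dosed mice, all bearing a transplantable tumor.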
# [1] = dose: 100.0 mg/kg/injection, schedule: Q01DX009 (ip), vehicle: saline with Tween-80
# [2] = dose: 200.0 mg/kg/injection, schedule: Q01DX009 (ip), vehicle: saline with Tween-80
smiles,measurement,setting,value
CCCCNC(=O)/C(=C\c1ccccc1)NC(C)=O,T/C,"dose: 3.0 mg/kg/injection, schedule: Q04DX003 (ip), vehicle: DMSO",92 % of control
same,T/C,"dose: 6.0 mg/kg/injection, schedule: Q04DX003 (ip), vehicle: DMSO",92 % of control
same,T/C,"dose: 6.25 mg/kg/injection, schedule: Q01DX009 (ip), vehicle: DMSO",96 % of control
same,T/C,"dose: 12.0 mg/kg/injection, schedule: Q04DX003 (ip), vehicle: DMSO",94 % of control
same,T/C,"dose: 12.5 mg/kg/injection, schedule: Q01DX009 (ip), vehicle: DMSO",93 % of control
same,T/C,"dose: 12.5 mg/kg/injection, schedule: Q04DX003 (ip), vehicle: DMSO",100 % of control
CCCCOCCOC(=O)CC(/C=C(/C)CC(C)(C)C)C(=O)OCCOCCCC (stereo not drawn),T/C,"dose: 222.0 mg/kg/injection, schedule: Q01DX Z (ip), vehicle: methylcellulose (MC)",101 % of control
same,T/C,"dose: 333.0 mg/kg/injection, schedule: Q01DX Z (ip), vehicle: methylcellulose (MC)",108 % of control
same,T/C,"dose: 500.0 mg/kg/injection, schedule: Q01DX Z (ip), vehicle: methylcellulose (MC)",96 % of control
CC1CCC2N(C1)CC1C3(O)CC4(O)C(CCC5C(=O)C(O)CCC54C)C3(O)CC(O)C1(O)C2(C)O (stereo not drawn),T/C,"dose: 5.0 mg/kg/injection, schedule: Q01DX001 (ip), vehicle: saline",98 % of control
same,T/C,"dose: 10.0 mg/kg/injection, schedule: Q01DX001 (ip), vehicle: saline",98 % of control
same,T/C,"dose: 20.0 mg/kg/injection, schedule: Q01DX001 (ip), vehicle: saline",98 % of control
CSc1ccc(C(=O)NN)cc1,T/C,"dose: 50.0 mg/kg/injection, schedule: Q01DX001 (ip), vehicle: saline",101 % of control
same,T/C,"dose: 100.0 mg/kg/injection, schedule: Q01DX001 (ip), vehicle: saline",101 % of control
same,T/C,"dose: 200.0 mg/kg/injection, schedule: Q01DX001 (ip), vehicle: saline",101 % of control
same,T/C,"dose: 400.0 mg/kg/injection, schedule: Q01DX001 (ip), vehicle: saline",104 % of control
O=NN(CCCl)C(=O)Nc1ccc(Br)cn1,T/C,"dose: 3.0 mg/kg/injection, schedule: Q01DX009 (ip), vehicle: carboxymethylcellulose (CMC)",97 % of control
same,T/C,"dose: 6.0 mg/kg/injection, schedule: Q01DX009 (ip), vehicle: carboxymethylcellulose (CMC)",103 % of control
same,T/C,"dose: 10.0 mg/kg/injection, schedule: Q01DX009 (ip), vehicle: carboxymethylcellulose (CMC)",186 % of control
same,T/C,"dose: 12.0 mg/kg/injection, schedule: Q01DX009 (ip), vehicle: carboxymethylcellulose (CMC)",119 % of control
same,T/C,"dose: 15.0 mg/kg/injection, schedule: Q01DX009 (ip), vehicle: carboxymethylcellulose (CMC)",154 % of control
same,T/C,"dose: 22.5 mg/kg/injection, schedule: Q01DX009 (ip), vehicle: carboxymethylcellulose (CMC)",158 % of control
same,T/C,"dose: 29.0 mg/kg/injection, schedule: Q01DX009 (ip), vehicle: carboxymethylcellulose (CMC)",157 % of control
same,T/C,"dose: 66.0 mg/kg/injection, schedule: Q01DX001 (ip), vehicle: carboxymethylcellulose (CMC)",151 % of control
same,T/C,"dose: 100.0 mg/kg/injection, schedule: Q01DX001 (ip), vehicle: carboxymethylcellulose (CMC)",150 % of control and 173 % of control
same,T/C,"dose: 150.0 mg/kg/injection, schedule: Q01DX001 (ip), vehicle: carboxymethylcellulose (CMC)",102 % of control and 109 % of control
C=CCc1ccc(OC(=O)Nc2cc(Cl)ccc2OC)c(OC)c1,T/C,"dose: 100.0 mg/kg/injection, schedule: Q01DX001 (ip), vehicle: saline with Tween-80",102 % of control
same,T/C,[1],90 % of control
same,T/C,"dose: 100.0 mg/kg/injection, schedule: Q04DX002 (ip), vehicle: saline with Tween-80",101 % of control and 91 % of control
same,T/C,"dose: 200.0 mg/kg/injection, schedule: Q01DX001 (ip), vehicle: saline with Tween-80",90 % of control
same,T/C,[2],96 % of control
same,T/C,"dose: 200.0 mg/kg/injection, schedule: Q04DX002 (ip), vehicle: saline with Tween-80",95 % of control
same,T/C,"dose: 400.0 mg/kg/injection, schedule: Q01DX001 (ip), vehicle: saline with Tween-80",90 % of control
same,T/C,"dose: 400.0 mg/kg/injection, schedule: Q01DX009 (ip), vehicle: saline with Tween-80",95 % of control
same,T/C,"dose: 400.0 mg/kg/injection, schedule: Q04DX002 (ip), vehicle: saline with Tween-80",87 % of control and 90 % of control
O=C1c2cccc3c(Br)ccc(c23)C(=O)N1C1CCCCCCCCCCC1,T/C,[1],97 % of control
same,T/C,[2],90 % of control
N#CCc1c(Cl)ccc(Cl)c1Cl,T/C,"dose: 12.0 mg/kg/injection, schedule: Q01DX009 (ip), vehicle: Klucel (hydroxypropylcellulose) (HPC)",97 % of control
same,T/C,"dose: 25.0 mg/kg/injection, schedule: Q01DX009 (ip), vehicle: Klucel (hydroxypropylcellulose) (HPC)",100 % of control
same,T/C,"dose: 25.0 mg/kg/injection, schedule: Q04DX003 (ip), vehicle: Klucel (hydroxypropylcellulose) (HPC)",97 % of control
same,T/C,"dose: 50.0 mg/kg/injection, schedule: Q01DX009 (ip), vehicle: Klucel (hydroxypropylcellulose) (HPC)",94 % of control
same,T/C,"dose: 50.0 mg/kg/injection, schedule: Q04DX003 (ip), vehicle: Klucel (hydroxypropylcellulose) (HPC)",98 % of control
same,T/C,"dose: 100.0 mg/kg/injection, schedule: Q04DX003 (ip), vehicle: Klucel (hydroxypropylcellulose) (HPC)",101 % of control and 87 % of control
